How the values were obtained:
[1] = test system: plasma NfL; test: Plasma NfL, CMT mice treated with AAT 180 mg/kg/day sc; format: in vivo, mouse
From the text: Animals were received at 6 weeks of age and housed under controlled conditions for the duration of the study. The study comprised two groups of 8 transgenic mice (CMT mice) each and one group of 8 age matched wild type (WT) C57B16 mice, serving as positive control. Animals were assigned to the following subcutaneous treatments twice daily at 7:00 AM and 7:00 PM for 2 weeks, starting from 8 weeks and up to 10 weeks of age: • Wild-type (WT, no disease) mice receiving vehicle, 0.9% NaCl (positive control) • CMT1A mice receiving vehicle, 0.9% NaCl (negative control) • CMT1A mice receiving AAT at 90 mg/kg per injection (daily dose 180 mg/kg)
The efficacy parameters included: • neuromuscular performance (rotarod latency to fall and grip strength test), • sciatic nerve electrophysiology (CMAP amplitude and NCV) • cytokine (IL-6 and TNFα), as well as NfL analysis • sciatic nerve histology (number of axons and axonal diameter),
As supportive information for the mode of action of AAT in CMT, plasma concentration of interleukin 6 (IL-6) and TNFα were measured at Day 1 (8 weeks), Day 15 (10 weeks) and Day 30 (12 weeks). At the same timepoints, plasma levels of the biomarker of nerve damage, NfL were determined.

[2] = test system: plasma IL-6; test: Plasma IL-6 concentration, CMT1A mouse study (50 mg/kg twice daily); format: in vivo; settings: for Plasma IL-6 concentration (Mean ± SD): CMT1A mice
Method: Animals were split in 3 groups (wild-type control (subcutaneous 0.9% NaCl), CMT1A-vehicle (subcutaneous 0.9% NaCl), CMT1A-human alpha-1 antitrypsin (subcutaneous, twice daily, 50 mg/kg per injection)) of 3 mice each (3 weeks old males of 18±2.5 g at the beginning of study) and all went through the following protocol after 7 days of acclimation on site.
Starting from the age of 4 weeks, animals were subjected to blood samplings for the determination of interleukin-6 (IL-6) and tumor necrosing factor alpha (TNFα) levels, as described in FIG. 16.

Q: With alpha1-antitrypsin (AAT) protein as the substance, how does the “Plasma NfL (Mean ± SD)” value ([1]; 8 weeks old (baseline, Day 1), CMT1A + AAT) read?
A: 3.83 ± 0.61 ng/mL

Q: What about the “Plasma NfL (Mean ± SD)” value ([1]; 10 weeks old (Day 15, after 2 weeks AAT 90 mg/kg sc twice daily)) of the same substance?
A: 1.96 ± 0.46 ng/mL

Q: And the “positive effect on NfL plasma levels” value ([1]; 12 weeks of age, after 2-week treatment-free period)?
A: remained significant

Q: And the “Plasma NfL (Mean ± SD)” value ([1]; 12 weeks old (Day 30, after 2-week treatment-free period))?
A: 4.25 ± 0.36 ng/mL

Q: And the “level of NfL” value ([1]; CMT mice, AAT 90 mg/kg sc twice a day)?
A: reduced

Q: And the “Plasma IL-6 concentration (Mean ± SD)” value ([2]; Day 1 (baseline))?
A: 34.19 ± 1.67 pg/mL

Q: What about the “Plasma IL-6 concentration (Mean ± SD)” value ([2]; Day 8) of the same substance?
A: 39.10 ± 1.91 pg/mL

Q: And the “Plasma IL-6 concentration (Mean ± SD)” value ([2]; Day 14)?
A: 84.21 ± 4.727 pg/mL

Q: And the “Plasma IL-6 concentration (Mean ± SD)” value ([2]; Day 29)?
A: 90.20 ± 3.085 ^† pg/mL

Q: What about the “plasma IL-6 concentration vs animals treated with vehicle” value ([2]; CMT + AAT, day 29) of the same substance?
A: lower

— patent US20260028390A1, “ALPHA1-ANTITRYPSIN FOR USE IN THE TREATMENT OF DISEASES OR DISORDERS OF THE NERVOUS SYSTEM SUCH AS CHRONIC INFLAMMATORY DEMYELINATING POLYNEUROPATHY” (Ageronix SA, priority 2022, published 2026)
